In patent US9255295B2, “Method for evaluating the sensitizing potential of a test compound” (IMMUNOSEARCH, priority 2010, dated 2016):

System: genes specific for sensitization (BRAK, CTSS, DAPK2, FABP4, HSP27, IL18, HSP90, IL1R2, TPSAB1, CXCR1, DEFB1, DHFR, EHF, IVL, KRT4, MELANA, NGAL, PDZK1IP1, PI3 …)
Assay: Expression of the other (non-ARE) sensitization-specific genes in EPISKIN reconstructed skin (quantitative RT-PCR)
Assay type: cell-based, human

## Oc1ccc(O)cc1 [Hydroquinone]
0.1%
  BRAK expression compared to control: 0.7
  BRAK grade (NUMBER OF GENES): 0 (if this expression is lower, the grade is 0)
  CTSS expression compared to control: 0.7
  CTSS grade (NUMBER OF GENES): 0 (if this expression is lower, the grade is 0)
  CXCR1 expression compared to control: 2.9
  CXCR1 grade (NUMBER OF GENES): 1 (If the expression is greater than 1.3 compared to the control, a grade of 11s given)
  DAPK2 expression compared to control: 1.1
  DAPK2 grade (NUMBER OF GENES): 0 (if this expression is lower, the grade is 0)
  DEFB1 expression compared to control: 1.7
  DEFB1 grade (NUMBER OF GENES): 1 (If the expression is greater than 1.3 compared to the control, a grade of 11s given)
  DHFR expression compared to control: 0.4
  DHFR grade (NUMBER OF GENES): 0 (if this expression is lower, the grade is 0)
  EHF expression compared to control: 1.2
  EHF grade (NUMBER OF GENES): 0 (if this expression is lower, the grade is 0)
  FABP4 expression compared to control: 1.1
  FABP4 grade (NUMBER OF GENES): 0 (if this expression is lower, the grade is 0)
  HSP27 expression compared to control: 0.8
  HSP27 grade (NUMBER OF GENES): 0 (if this expression is lower, the grade is 0)
  HSP90 expression compared to control: 1.3
  HSP90 grade (NUMBER OF GENES): 0 (if this expression is lower, the grade is 0)
  IL18 expression compared to control: 0.8
  IL18 grade (NUMBER OF GENES): 0 (if this expression is lower, the grade is 0)
  IVL expression compared to control: 1.6
  IVL grade (NUMBER OF GENES): 1 (If the expression is greater than 1.3 compared to the control, a grade of 11s given)
  KRT4 expression compared to control: 2.0
  KRT4 grade (NUMBER OF GENES): 1 (If the expression is greater than 1.3 compared to the control, a grade of 11s given)
  MELANA expression compared to control: 0.7
  MELANA grade (NUMBER OF GENES): 0 (if this expression is lower, the grade is 0)
  NGAL expression compared to control: 1.5
  NGAL grade (NUMBER OF GENES): 1 (If the expression is greater than 1.3 compared to the control, a grade of 11s given)
  P13 expression compared to control: 1.1
  P13 grade (NUMBER OF GENES): 0 (if this expression is lower, the grade is 0)
  PDZK1iP1 expression compared to control: 1.2
  PDZK1iP1 grade (NUMBER OF GENES): 0 (if this expression is lower, the grade is 0)
  SENS >1.3 (NUMBER OF GENES): 2
  SERPINB3 expression compared to control: 1.1
  SERPINB3 grade (NUMBER OF GENES): 0 (if this expression is lower, the grade is 0)
  TOTAL SENS (NUMBER OF GENES): 5
1%
  BRAK expression compared to control: 0.8
  BRAK grade (NUMBER OF GENES): 0 (if this expression is lower, the grade is 0)
  CTSS expression compared to control: 1.2
  CTSS grade (NUMBER OF GENES): 0 (if this expression is lower, the grade is 0)
  CXCR1 expression compared to control: 2.8
  CXCR1 grade (NUMBER OF GENES): 1 (If the expression is greater than 1.3 compared to the control, a grade of 11s given)
  DAPK2 expression compared to control: 1.2
  DAPK2 grade (NUMBER OF GENES): 0 (if this expression is lower, the grade is 0)
  DEFB1 expression compared to control: 1.1
  DEFB1 grade (NUMBER OF GENES): 0 (if this expression is lower, the grade is 0)
  DHFR expression compared to control: 0.8
  DHFR grade (NUMBER OF GENES): 0 (if this expression is lower, the grade is 0)
  EHF expression compared to control: 1.1
  EHF grade (NUMBER OF GENES): 0 (if this expression is lower, the grade is 0)
  FABP4 expression compared to control: 1.1
  FABP4 grade (NUMBER OF GENES): 0 (if this expression is lower, the grade is 0)
  HSP27 expression compared to control: 0.9
  HSP27 grade (NUMBER OF GENES): 0 (if this expression is lower, the grade is 0)
  HSP90 expression compared to control: 1.1
  HSP90 grade (NUMBER OF GENES): 0 (if this expression is lower, the grade is 0)
  IL18 expression compared to control: 0.8
  IL18 grade (NUMBER OF GENES): 0 (if this expression is lower, the grade is 0)
  IVL expression compared to control: 1.5
  IVL grade (NUMBER OF GENES): 1 (If the expression is greater than 1.3 compared to the control, a grade of 11s given)
  KRT4 expression compared to control: 1.5
  KRT4 grade (NUMBER OF GENES): 1 (If the expression is greater than 1.3 compared to the control, a grade of 11s given)
  MELANA expression compared to control: 0.7
  MELANA grade (NUMBER OF GENES): 0 (if this expression is lower, the grade is 0)
  NGAL expression compared to control: 1.7
  NGAL grade (NUMBER OF GENES): 1 (If the expression is greater than 1.3 compared to the control, a grade of 11s given)
  P13 expression compared to control: 1.2
  P13 grade (NUMBER OF GENES): 0 (if this expression is lower, the grade is 0)
  PDZK1iP1 expression compared to control: 1.0
  PDZK1iP1 grade (NUMBER OF GENES): 0 (if this expression is lower, the grade is 0)
  SENS >1.3 (NUMBER OF GENES): 5
  SERPINB3 expression compared to control: 1.0
  SERPINB3 grade (NUMBER OF GENES): 0 (if this expression is lower, the grade is 0)
  TOTAL SENS (NUMBER OF GENES): 5
10%
  BRAK expression compared to control: 0.8
  BRAK grade (NUMBER OF GENES): 0 (if this expression is lower, the grade is 0)
